Patent US6376212B1, “Polypeptide compounds and nucleotide sequences promoting resistance to eutypa dieback in plants” (Societe des Domaines Viticoles Martell, priority 1997, dated 2002)

Tests used:
[1] = target: T1, protein encoded in the VRER gene (Vigna radiata, UniProt Q9SQK0); assay: Biochemical characteristics of the protein encoded in the VRER gene (substrate reduction with NADPH); settings: in the presence of NADPH
T1 sequence (Q9SQK0 1-325): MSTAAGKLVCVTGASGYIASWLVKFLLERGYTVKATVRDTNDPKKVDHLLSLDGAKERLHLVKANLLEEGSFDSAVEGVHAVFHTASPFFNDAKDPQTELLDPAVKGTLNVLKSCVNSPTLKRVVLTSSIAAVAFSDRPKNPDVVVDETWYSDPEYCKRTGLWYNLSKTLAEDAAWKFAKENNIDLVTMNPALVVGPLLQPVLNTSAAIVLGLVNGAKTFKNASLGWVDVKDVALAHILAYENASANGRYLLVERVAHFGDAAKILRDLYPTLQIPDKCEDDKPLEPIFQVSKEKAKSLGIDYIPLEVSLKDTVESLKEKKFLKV
Source text: The protein encoded in the VRER gene was characterized biochemically. […] It was also investigated whether this protein was capable of reducing other substrates.

mitochondria = assay: Decoupling of oxidative phosphorylation in mitochondria; format: biochemical
Procedure: The mode of action of eutypine was confirmed by investigating its effects on the functioning of mitochondria. Eutypine acts as a decoupling agent of oxidative phosphorylation. The complete decoupling of the mitochondria is attained at concentrations of eutypine close to 150 μM.

grapevine cells [2] = assay: Penetration of eutypine into grapevine cells; format: cell-based
Source text: The investigation of the mode of action of eutypine in the grapevine cells was made possible owing to the availability of eutypine in the unlabelled form and in the radioactive form, labelled with carbon 14.
This toxic molecule then accumulates in the cytoplasm by an acid trapping mechanism and, owing to its lipophilic character, inserts itself into the lipids of the membranes.

[3] = tested on: transformed (GA, GB, GC, GD) grapevine cells; assay: Biotest I: mortality of grapevine cells in suspension with eutypine (erythrosine); format: cell-based, Vitis vinifera cv Gamay
Procedure: (§1) In the biotest I, the percentage of dead cells was estimated by means of the erythrosine reagent. The concentration of eutypine inducing a percentage of dead cells of 50% is determined in the wildtype strain and in the transformed varieties.

[4] = tested on: untransformed (GWT) grapevine cells; assay: as above; format: cell-based, Vitis vinifera cv Gamay; settings: GWT wildtype
Procedure: as §1

[5] = tested on: transformed calluses (GA); assay: Biotest II: growth of calluses on media containing eutypine; settings: 500 μM of eutypine; GA variety
[6] = tested on: transformed (UBT) calluses of Vitis vinifera cv Ugni blanc; assay: Biotest II: development of calluses in the presence of eutypine; format: cell-based
Procedure: (§2) The transformation experiments were also performed on calluses of Vitis vinifera cv Ugni blanc by making use of the same experimental protocol as that used for the transformation of the calluses of Vitis vinifera cv. Gamay.
(§3) The analysis of the behaviour of the calluses of Vitis vinifera cv Ugni blanc towards eutypine was performed by using biotest II.

[7] = tested on: untransformed (UBWT) calluses of Vitis vinifera cv Ugni blanc; assay: as above; format: cell-based
Procedure: as §2, §3

[8] = tested on: protoplasts obtained from grapevine leaves; assay: Tolerance of leaf protoplasts to eutypine; format: cell-based; settings: Cabernet Sauvignon protoplasts compared with Merlot protoplasts
Source text: the eutypine applied to simplified biological systems causes more serious symptoms in the varieties sensitive to eutypa dieback than in varieties of grapevines tolerant to this disease.

[9] = tested on: protoplasts of Cabernet Sauvignon; assay: Degradation of eutypine by protoplasts (detoxification activity); format: in vitro ADME, Vitis vinifera; settings: Cabernet Sauvignon (sensitive); eutypine 100 μM, 1 hour, 30° C.
Procedure: (§4) The protoplasts (10^6/ml) obtained from leaves of vitroplants are incubated for 1 hour at 30° C. in the presence of eutypine (100 μM; 0.4 kBq). Then, the phenylacetylenic compounds are extracted, separated by thin layer chromatography and the metabolic rate of eutypine is calculated after determination of the radioactivity associated with eutypine and eutypinol.

protoplasts of Merlot = assay: as above; format: in vitro ADME, Vitis vinifera; settings: Merlot (tolerant); eutypine 100 μM, 1 hour, 30° C.
Procedure: as §4

[10] = tested on: protoplasts of Ugni blanc; assay: as above; format: in vitro ADME, Vitis vinifera; settings: Ugni blanc (very sensitive); eutypine 100 μM, 1 hour, 30° C.
Procedure: as §4

grapevine vitroplants = assay: Application of eutypine to grapevine vitroplants; format: in vivo
[11] = Viability of leaf protoplasts cultured with eutypine or eutypinol; format: cell-based, Vitis vinifera; settings: Vitis vinifera, protoplasts 4.5×10^5/ml, 48 hours, read-out: Viability after 48 hours
Procedure: (§5) The protoplasts (4.5×10^5/ml) are cultured in the presence of eutypine or eutypinol for 48 hours.

grapevine cells [12] = assay: Consumption of oxygen of grapevine cells; format: cell-based; settings: activation at low dose
Procedure: Eutypine affects the functioning of the membrane systems of the grapevine cells. It causes the acidification of the cytoplasm, the reduction of leucine transport, the activation at low dose of the consumption of oxygen and its inhibition above 160 μM, and a diminution of the energy load of the cells.

[13] = tested on: untransformed calluses (GWT); assay: Biotest II: growth of calluses on media containing eutypine; settings: 500 μM of eutypine; wildtype calluses
[14] = tested on: protoplasts obtained from leaves of vitroplants of Vitis vinifera cv. Cabernet Sauvignon; assay: Viability of leaf protoplasts cultured with eutypine or eutypinol; format: cell-based; settings: for Viability after 48 hours: protoplasts 4.5×10^5/ml
Procedure: as §5

eutypine reductase = assay: Conversion of eutypine to eutypinol: effect of reductase inhibitors; format: biochemical, grapevine
Source text: The conversion of eutypine to eutypinol is catalyzed by a non-membrane enzyme, which specifically requires NADPH as co-factor. Its activity is reduced by reductase inhibitors such as disulfiram and parahydroxymercuribenzoic acid, confirming its membership of this group of enzymes. It has been called “eutypine reductase”. The reaction scheme is shown below. [drawing 2]

[15] = Reduction of eutypine by lysate of E. coli overexpressing the VRER protein; format: biochemical, Vigna radiata; settings: NADPH, radioactive eutypine, thin layer chromatography
Source text: For that, the complementary DNA of the VRER gene was cloned in an expression vector, then transferred into the bacteria. The lysate of these bacteria which overexpress the protein corresponding to the VRER gene uses the co-factor NADPH to reduce eutypine.

2-fluoraldehyde
reduction by the ER protein [1]: reduced

O=Cc1ccncc1 [4-pyridine carbaldehyde]
reduction by the ER protein [1]: reduced

C=C(C)C#Cc1cc(C=O)ccc1O [Eutypine, 4-hydroxy-3-(3-methylbut-3-en-1-ynyl) benzaldehyde]
concentration for complete decoupling of the mitochondria (mitochondria): ~150 µM
penetration into the grapevine cells (grapevine cells [2]): passive diffusion
LD50 (eutypine concentration causing the mortality of 50%) ([3]; GA transformed cells in suspension): 255 µM
LD50 (eutypine concentration causing the mortality of 50%) ([3]; GB transformed cells in suspension): 250 µM
LD50 (eutypine concentration causing the mortality of 50%) ([3]; GC transformed cells in suspension): 230 µM
LD50 (eutypine concentration causing the mortality of 50%) ([3]; GD transformed cells in suspension): 225 µM
LD50 (eutypine concentration causing the mortality of 50%) [4]: 100 µM
development of calluses [5]: does not exhibit necroses
Mean mass of a callus ([6]; 500 μM of eutypine, UBT): 150 mg
growth of the calluses ([6]; 500 μM, transformed UB variety): practically unaffected
Mean mass of a callus ([7]; 500 μM of eutypine, UBWT): 25 mg
development of calluses ([7]; 500 μM, wildtype variety): necrose rapidly and do not develop
tolerance of protoplasts to eutypine [8]: lower tolerance
Detoxification activity [9]: 10.1 pmol/min/10^5 cells
Detoxification activity (protoplasts of Merlot): 13.6 pmol/min/10^5 cells
Detoxification activity [10]: 7.9 pmol/min/10^5 cells
symptoms of the disease (grapevine vitroplants; applied to grapevine vitroplants): reproduces certain symptoms of the disease
ultrastructural alterations in the leaves (grapevine vitroplants; leaves of vitroplants): induces ultrastructural alterations
viability at 48 h, 100 µM ([11]; 100 μM): 67%
viability at 48 h, 200 µM ([11]; 200 μM): 0%
concentration for inhibition of the consumption of oxygen (grapevine cells [12]): above 160 μM
development of calluses [13]: do not develop

C=C(C)C#Cc1cc(CO)ccc1O [Eutypinol, 4-hydroxy-3-(3-methylbut-3-en-1-ynyl) benzylic alcohol]
Viability after 48 hours ([14]; 200 μM): 86
Viability after 48 hours ([14]; 500 μM): 83
toxicity to the grapevine ([14]; even at high concentrations): does not show toxicity

O=Cc1ccccc1 [benzaldehyde]
reduction by the ER protein [1]: reduced

CCCCCCCCCC=O [decylaldehyde]
reduction by the ER protein [1]: reduced

CCCCCC=O [hexanal]
reduction by the ER protein [1]: reduced

O=C(O)c1cc[c]([Hg][OH])cc1 [parahydroxymercuribenzoic acid]
activity of eutypine reductase in the presence of reductase inhibitor (eutypine reductase): reduced

B1: protein corresponding to the VRER gene: polypeptide of 325 amino acids from Vigna radiata with eutypine reductase activity, SEQ ID NO. 4 (protein)
chain: MSTAAGKLVCVTGASGYIASWLVKFLLERGYTVKATVRDTNDPKKVDHLLSLDGAKERLHLVKANLLEEGSFDSAVEGVHAVFHTASPFFNDAKDPQTELLDPAVKGTLNVLKSCVNSPTLKRVVLTSSIAAVAFSDRPKNPDVVVDETWYSDPEYCKRTGLWYNLSKTLAEDAAWKFAKENNIDLVTMNPALVVGPLLQPVLNTSAAIVLGLVNGAKTFKNASLGWVDVKDVALAHILAYENASANGRYLLVERVAHFGDAAKILRDLYPTLQIPDKCEDDKPLEPIFQVSKEKAKSLGIDYIPLEVSLKDTVESLKEKKFLKV
eutypine reductase activity [15]: exhibits a “eutypine reductase” activity in vitro
